Reference: ChEMBL document CHEMBL3638498, “Pharmaceutical compounds” (2014)

Target: T1, Serine/threonine-protein kinase Chk1 (Homo sapiens, UniProt O14757)
T1 sequence (O14757 whole entry): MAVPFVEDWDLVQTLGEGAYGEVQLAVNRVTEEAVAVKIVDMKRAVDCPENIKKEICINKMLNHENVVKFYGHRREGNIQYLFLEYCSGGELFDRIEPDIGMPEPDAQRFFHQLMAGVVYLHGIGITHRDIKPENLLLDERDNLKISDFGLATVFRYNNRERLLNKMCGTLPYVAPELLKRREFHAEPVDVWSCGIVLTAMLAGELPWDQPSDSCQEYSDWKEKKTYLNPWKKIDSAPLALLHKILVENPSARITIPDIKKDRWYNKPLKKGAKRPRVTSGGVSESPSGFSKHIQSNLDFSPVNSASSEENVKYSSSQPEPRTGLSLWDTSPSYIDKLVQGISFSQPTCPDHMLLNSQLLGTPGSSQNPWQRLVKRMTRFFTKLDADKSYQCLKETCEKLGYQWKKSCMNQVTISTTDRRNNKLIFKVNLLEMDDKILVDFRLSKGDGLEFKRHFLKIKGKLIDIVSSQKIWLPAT
Test: Inhibiting Assay: The compounds of the invention were tested for activity against Chk-1 kinase using the materials and protocols set out below. Reaction Buffer: Base Reaction buffer: 20 mM Hepes (pH 7.5), 10 mM MgCl2, 1 mM EGTA, 0.02% Brij35, 0.02 mg/ml BSA, 0.1 mM Na3VO4, 2 mM DTT, 1% DMSO. Required cofactors are added individually to each kinase reaction Reaction Procedure:(i) Prepare indicated substrate in freshly prepared Base Reaction Buffer(ii) Deliver any required cofactors to the substrate solution above(iii) Deliver indicated kinase into the substrate solution and gently mix(iv) Deliver compounds in DMSO into the kinase reaction mixture(v) Deliver 33P-ATP (specific activity 0.01 μCi/μl final) into the reaction mixture to initiate the reaction.(vi) Incubate kinase reaction for 120 minutes at room temperature(vii) Reactions are spotted onto P81 ion exchange paper (Whatman #3698-915)(viii) Wash filters extensively in 0.1% phosphoric acid.(ix) Measure counts in scintillation counter.
Assay type: organism-based

**Q.** With `N#Cc1cnc(NC(=O)Nc2ccc(CCNCc3ccc(F)cc3)c(Br)c2)cn1` as the compound, how does the IC50 read?
**A.** The IC50 was 0.019 µM.
